Measurements as given in PMC8020795 (Proceedings of the National Academy of Sciences of the …, 2021).

Tests used:
[1] = Non-GLP 14-d repeated dose toxicology; format: in vivo
[2] = tested on: CXCR4+CD34+ stem cells; experiment: CXCR4+CD34+ stem cell mobilization; format: in vivo, C57BL/6 mice; details: 6 mg/kg SC, peripheral blood 2 h after dosing
Method: Cy7, and CD206-APC (BioLegend, San Diego, CA) antibodies, as previously described.[8] Flow cytometry data were acquired on a BD FACSAria III flow cytometer and analyzed with […]
C57BL/6 male mice were treated with potential CXCR4 antagonist individually by subcutaneous injection, and then blood samples containing mobilized stem/progenitor cells were collected 2 hours later. After labeled with specific antibodies, including APC-conjugated anti-CXCR4 (clone 2B11; eBioscience) and FITC-conjugated anti-CD34 (clone RAM34; eBioscience), cells were washed, characterized and quantified by flow cytometer (Guava Technologies, Hayward, CA, USA). Each data point included at least 60,000 events for analysis of other cell types.
Western blotting was conducted by following standard procedures. HCA-1 or JHH-7 cells (10^5 cells per well) were seeded in 12-well plates (Costar, IL), incubated for 12 h and […]
Reverse transcription quantitative real time PCR
Total RNA was extracted from HCA-1 cells using the RNeasy Mini Kit (Qiagen, CA, USA). cDNAs were synthesized using the High-Capicity cDNA Reverse Transcription Kit (Applied Biosystems, CA, USA). Primers specific for Slug, Fn1, Cdh2, Vim, Foxc2, Zeb1, Zeb2, Twist1, Cdh1, Mta3, Cldn3, Cldn5, β-actin and GAPDH were used, and relative gene expression was determined using Real-Time SYBR Green PCR Master Mix (Applied Biosystems, CA, USA) on a QPCR System. […]

[3] = tested on: orthotopic JHH-7 tumors; experiment: Orthotopic JHH-7 HCC model; format: in vivo, nude mice; details: combination with sorafenib (40 mg/kg/d, oral); BPRCX807 15 mg/kg/d SC minipump
Method: In vivo hepatocellular carcinoma treatment studies […]
mouse PD-1 (200 µg/mouse; BioXcell, BE0146). The therapeutic efficacy and the changes in immune cells were analyzed after two weeks of treatment. The tumor volume was calculated with the following formula: volume = width × length × height/2. […]

## Cc1cc(NC2CCN(C(=O)CCNCC(=O)O)CC2)nc(NCc2nc(CCCNCCCNC3CCCCC3)co2)n1 [BPRCX807]
[1]; SD rats, 50 mg/kg/d, 14 d
  Survival in repeated dose toxicology: all animals survived up to study termination
[1]; rat, in vivo
  Non-GLP 14-d repeated dose, overall finding: Clean
[1]; rat, in vivo, 50 mg/kg/day
  Hematological and biochemical data vs vehicle: no significant difference
  Major organs (heart, lung, kidney, liver) vs vehicle: normal in size, weight, and color
[1]; rat, in vivo, sc, 50 mg/kg
  Adrenal Glands/B.W.: 0.0002 ± 0.00003
  Albumin (ALB): 4.0 ± 0.2 g/dL
  Alkaline Phosphatase (ALP): 901 ± 60 U/L
  Basophil: 0.002 ± 0.004 103/µL
  Basophil %: 0.01 ± 0.02%
  Blood Urea Nitrogen (BUN): 16.7 ± 2.1 mg/dL
  Creatinine (CRE): 0.22 ± 0.04 mg/dL
  Eosinophil: 0.01 ± 0.01 103/µL
  Eosinophil %: 0.11 ± 0.05%
  Erythrocyte: 6.33 ± 0.45 106/µL
  Glutamate oxaloacetate transaminase (GOT): 67 ± 7 U/L
  Glutamate pyruvate transaminase (GPT): 35 ± 5 U/L
  Heart/B.W.: 0.0038 ± 0.0004
  Hematocrit: 41.4 ± 3.5
  Hemoglobin: 13.8 ± 0.9 g/dL
  Kidneys/B.W.: 0.0095 ± 0.0011
  Lactate dehydrogenase (LDH): 272 ± 132 U/L
  Liver/B.W.: 0.0460 ± 0.0044
  Lung/B.W.: 0.0054 ± 0.0005
  Lymphocyte: 6.36 ± 3.70 103/µL
  Lymphocyte %: 58.95 ± 6.42%
  Mean corpuscle hemoglobin: 21.8 ± 1.0 pg
  Mean corpuscle volume: 65.4 ± 2.7 fL
  Mean platelet volume: 6.4 ± 0.1 fL
  Monocyte: 0.63 ± 0.36 103/µL
  Monocyte %: 5.82 ± 1.11%
  Neutrophil: 3.75 ± 2.13 103/µL
  Neutrophil %: 35.11 ± 5.51%
  Platelet: 1327± 239 103/µL
  Spleen/B.W.: 0.0021 ± 0.0004
  Testes/B.W.: 0.0094 ± 0.0006
  Thymus/B.W.: 0.0021 ± 0.0006
  White blood cells: 10.75 ± 6.09 103/µL
[2]
  Number of CXCR4+CD34+ stem cells mobilized, relative to AMD3100: roughly 1.5 fold
[3]
  Tumor volume reduction: ~77%
